Test results published in patent publication US20110104064A1, “CYCLIZED NON-NATIVE SYNTHETIC PEPTIDE AND COMPLEX OF PEPTIDES COMPRISING SAID CYCLIZED PEPTIDE, INTENDED TO INDUCE AND TO CH[…] PREVENTION OR TREATMENT OF CONDITIONS IN MAMMALS” (priority 2008, published 2011).
Bridges are numbered along the chain shown (N, C = ends). Where no end group is shown, it is not given here.

What was measured:
monocytes = assay: Leishmanicidal activity of monocytes (cell-mediated Th1 response); type: cell-based, dog; conditions: for immune response after vaccination (summary of Table I): dogs, 1 month after the 3rd injection, with adjuvant QA21
From the text: (§1) This evidence was gathered using two techniques: • Assaying the leishmanicidal activity of the monocytes according to the method described previously (Patent FRO1076060); • Detection of dog IgG2, specific to the cyclized peptide E34P and the carboxyterminal group of PSA.
(§2) Biological analysis consisted of: • Serology of specific IgG2 of cyclized peptide E34P and of the carboxyterminal group of PSA; • Leishmaniasis serology: quantitative immunofluorescence of the total IgG (sign of infection); • Leishmanicidal activity of the monocytes (cell-mediated response).

Leishmania = assay: Infection test in vaccinated dogs, parasitology from marrow punctures; type: in vivo; conditions: four months after the infection test
Procedure: The infection test consisted of intravenously injecting 10^8 complement-treated promastigotes in metacyclic phase from a healthy dog and 5×10^8 peritoneous macrophages from a healthy dog, infected in vitro by amastigotes.
The promastigotes and the infected macrophages were diluted in sterile physiological serum to a final volume of 1.5 mL. This mixture was made up just prior to injection.
A parasitological examination was carried out from samples taken directly from the dog.
A smear from the bone-marrow puncture was made on a slide. This smear, once fixed in methanol was May Grümwald Giemsa stained and studied under an immersion microscope (×1000).
Some bone-marrow samples were cultivated in a biphasic culture medium NNN (Novy and Mac Neal, 1904, 4. Infec. Dis., 1:1-30) of which RPMI 1640 added to 20% of decomplemented fetal veal serum made up the liquid phase. Random subculturing was carried out every 4 to 6 days. The cultures were regularly studied by photon microscope (×400) for 20 minutes.
The parasitemias were quantified as follows: • +/−: elongated, immobile, refringent forms • +: 1 to 5 mobile/field promastigote forms • ++: >5 mobile/field promastigote forms • +++: cultivated to confluence.
It was necessary to add to these analyses the study of Leishmania by direct observation under microscope and culture in NNN medium from the bone-marrow after the infection test. […]

[1] = test system: Leishmania promastigotes and amastigotes; assay: Inhibition of parasitic growth by serums from vaccinated dogs; type: cell-based; conditions: in vitro
Procedure: Inhibition of the growth of promastigotes and amastigotes in the presence of IgG2 (Patent FR0209506).
The role of the IgG2 on the viability and growth of Leishmania promastigotes and amastigotes was analyzed with immunoserums from dogs vaccinated with the mixture including the cyclized peptide E34P and the serums from the placebo dogs.

cyclized peptide E34P = assay: ELISA serology of dog IgG2 vs. cyclised E34P after vaccination; type: in vivo; conditions: non-cyclization at Cys9/Cys15
Procedure: as §1
This detection was carried out by the ELISA method according to the microtitration technique of Kweider et al. (J. Immunol, 1987, 138, 299) by using an anti IgG2 conjugate. For this method, the peptide is biotinylated before coating onto microplates. This bonding to […] biotin-type molecules has the effect of rendering the cyclized peptide E34P more antigenic. We also use the recombinant protein coding for the carboxyterminal group of the PSA as antigen.
Biological analyses were carried out: • Before any injection • 1 month after the 3rd injection.
as §2

Substance	immune response after vaccination (summary of Table I) (monocytes)	protection after the infection test (summary of Table II) (Leishmania)	neutralizing / anti-parasitic role of the induced IgG2 [1]	IgG2 synthesis (cyclized peptide E34P)	Th1 stimulation (monocytes; peptide used alone or in combination with other peptides)
EDEHKGKYCRLGNDCRTTEPTTTATPRGTPTPAP (EDEHKGKYCRLGNDCRTTEPTTTATPRGTPTPAP; disulfide 9-15) [Group E34P]	only partial response	insufficient to induce an effective response	induces IgG2 immunoglobulins capable of neutralizing the proliferation		
NON-cyclized peptide E34P: the non-cyclized form of peptide E34P (SEQ ID No. 1 without Cys9/Cys15 disulfide bridge) (EDEHKGKYCRLGNDCRTTEPTTTATPRGTPTPAP; non-cyclized, no disulfide; Fully-synthetic sequence)	less effective than the cyclized E34P			only induces slight IgG2 synthesis	only induces very partial Th1 stimulation
